In ChEMBL document CHEMBL1201862, “PubChem BioAssay data set” (2004):
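Protocol summary: plate cells (96-well), add compound at 5 concentrations, incubate 48 h, interpolate endpoints linearly. GI50: concentration for 50% inhibition of growth.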 Calls of active or inactive are those of the source. Rule as the data show it: active = GI50 up to about 1.1 µM and inactive = higher. Where a SMILES comes first, the peptide text is derived from it. [ ]: non-standard residue; d: D form. The star is where a group is joined. Bn2Val = CC(C)[C@@H](C(=O)*)N(Cc1ccccc1)Cc1ccccc1; NH(3,4-diMeO-benzyl) = COc1ccc(CN*)cc1OC; NMeV = CN[C@H](C(=O)O)C(C)C

Experiments:
Experiment in all cases: growth of human tumour cells (NCI), 48 h
A549 = system: A549
UACC-257 = system: UACC-257
SF-295 = system: SF-295
NCI-H226 = system: NCI-H226
SK-MEL-5 = system: SK-MEL-5
NCI-H522 = system: NCI-H522
COLO 205 = system: COLO 205
KM12 = system: KM12
NCI-H23 = system: NCI-H23
K562 = system: K562
ACHN = system: ACHN
U-251 = system: U-251
IGROV-1 = system: IGROV-1
DMS-273 = system: DMS-273
SW-620 = system: SW-620
NCI-H460 = system: NCI-H460
HCT-116 = system: HCT-116
T47D = system: T47D
NCI/ADR-RES = system: NCI/ADR-RES
HOP-92 = system: HOP-92

Measured: GI50

O=C(Nc1c(-c2nc3ccccc3[nH]2)sc(=S)n1-c1ccccc1)c1ccccc1
inactive: A549 > 100 µM | UACC-257 > 100 µM | SF-295 97.5 µM | NCI-H226 24.5 µM | SK-MEL-5 > 100 µM | NCI-H522 > 100 µM | COLO 205 > 100 µM | KM12 > 100 µM | NCI-H23 > 100 µM | K562 > 100 µM | ACHN > 100 µM | U-251 > 100 µM | IGROV-1 > 100 µM | DMS-273 91.8 µM | SW-620 > 100 µM

Cn1c(=O)c(NC(=O)C(Cl)(Cl)Cl)nc2ccccc21
inactive: A549 > 100 µM | UACC-257 > 100 µM | NCI-H460 > 100 µM | SF-295 > 100 µM | NCI-H226 81.8 µM | SK-MEL-5 > 100 µM | NCI-H522 > 100 µM | COLO 205 > 100 µM | KM12 > 100 µM | NCI-H23 > 100 µM | K562 > 100 µM | HCT-116 > 100 µM | U-251 > 100 µM | IGROV-1 > 100 µM | DMS-273 > 100 µM | SW-620 > 100 µM

CC(NC1=NCCO1)c1cccc([N+](=O)[O-])c1 (configuration not stated)
inactive: A549 > 100 µM | UACC-257 > 100 µM | NCI-H460 > 100 µM | SF-295 > 100 µM | NCI-H226 > 100 µM | SK-MEL-5 > 100 µM | NCI-H522 > 100 µM | COLO 205 > 100 µM | KM12 > 100 µM | NCI-H23 > 100 µM | K562 > 100 µM | HCT-116 > 100 µM | T47D > 100 µM | ACHN > 100 µM | NCI/ADR-RES > 100 µM | U-251 > 100 µM | HOP-92 30 µM | IGROV-1 > 100 µM | SW-620 > 100 µM

O=C1C(Cl)C(c2cccc(Cl)c2)N1c1ccc(-n2c(S)nc3ccccc3c2=O)cc1 (configuration not stated)
inactive: A549 28.2 µM | UACC-257 26.9 µM | NCI-H460 16.5 µM | SF-295 19.2 µM | NCI-H226 25.4 µM | SK-MEL-5 15.1 µM | NCI-H522 15.1 µM | COLO 205 24.5 µM | KM12 28.4 µM | NCI-H23 19.6 µM | K562 17.9 µM | HCT-116 24.4 µM | T47D 31.8 µM | ACHN 18.7 µM | NCI/ADR-RES 25.8 µM | U-251 13.3 µM | HOP-92 19.9 µM | IGROV-1 5.07 µM | SW-620 29.6 µM

CN1c2ccccc2S(=O)(=O)n2c(COc3ccc(Cl)cc3)nnc21
inactive: A549 > 100 µM | UACC-257 > 100 µM | NCI-H460 > 100 µM | SF-295 27 µM | NCI-H226 92.5 µM | SK-MEL-5 > 100 µM | NCI-H522 31.3 µM | COLO 205 > 100 µM | KM12 > 100 µM | NCI-H23 > 100 µM | K562 > 100 µM | HCT-116 > 100 µM | T47D > 100 µM | ACHN > 100 µM | NCI/ADR-RES > 100 µM | U-251 44 µM | HOP-92 28 µM | IGROV-1 > 100 µM | SW-620 > 100 µM

O=C(O)c1ccc(NC(c2ccccc2)c2ccc3cccnc3c2O)cc1 (configuration not stated)
inactive: A549 5.94 µM | UACC-257 11.1 µM | NCI-H460 4.09 µM | SF-295 4 µM | NCI-H226 3.88 µM | SK-MEL-5 6.65 µM | NCI-H522 4.06 µM | COLO 205 9.84 µM | KM12 5.14 µM | NCI-H23 14.7 µM | K562 3.56 µM | HCT-116 3.67 µM | T47D 10.9 µM | ACHN 8.41 µM | NCI/ADR-RES 3.5 µM | U-251 4.17 µM | HOP-92 20.2 µM | IGROV-1 16.5 µM | SW-620 5.77 µM

COc1ccc(C2C3COc4ccccc4C3=NN2c2ccccc2)cc1 (configuration not stated)
inactive: A549 > 100 µM | UACC-257 > 100 µM | NCI-H460 94.4 µM | SF-295 > 100 µM | NCI-H226 > 100 µM | SK-MEL-5 > 100 µM | NCI-H522 > 100 µM | COLO 205 > 100 µM | KM12 > 100 µM | NCI-H23 > 100 µM | K562 > 100 µM | HCT-116 > 100 µM | T47D 48.8 µM | ACHN > 100 µM | NCI/ADR-RES > 100 µM | U-251 > 100 µM | HOP-92 > 100 µM | IGROV-1 > 100 µM | SW-620 > 100 µM

O=C(O)C(Br)C(Br)c1ccccc1[N+](=O)[O-] (configuration not stated)
inactive: A549 > 100 µM | UACC-257 > 100 µM | NCI-H460 > 100 µM | SF-295 > 100 µM | NCI-H226 > 100 µM | SK-MEL-5 > 100 µM | NCI-H522 16.3 µM | COLO 205 > 100 µM | KM12 > 100 µM | NCI-H23 > 100 µM | K562 > 100 µM | HCT-116 > 100 µM | T47D > 100 µM | ACHN > 100 µM | NCI/ADR-RES > 100 µM | U-251 > 100 µM | HOP-92 > 100 µM | IGROV-1 > 100 µM | SW-620 > 100 µM

COc1ccc(-c2cn3c(nc4ccccc43)c(C)n2)cc1
inactive: A549 86.5 µM | UACC-257 > 61.9 µM | NCI-H460 60.1 µM | SF-295 55 µM | NCI-H226 > 68.5 µM | SK-MEL-5 21.5 µM | NCI-H522 39.1 µM | COLO 205 > 100 µM | KM12 > 100 µM | NCI-H23 50.4 µM | K562 > 100 µM | HCT-116 85.1 µM | T47D 8.3 µM | ACHN 45.2 µM | NCI/ADR-RES 33.6 µM | U-251 50.4 µM | HOP-92 21.7 µM | IGROV-1 28.8 µM | SW-620 > 100 µM

C/C(CC(O)(C(F)(F)Cl)C(F)(F)Cl)=N\Nc1ccccc1
inactive: A549 37.2 µM | UACC-257 44.7 µM | NCI-H460 29.7 µM | SF-295 42.3 µM | NCI-H226 25.2 µM | SK-MEL-5 19.1 µM | NCI-H522 28.5 µM | COLO 205 31.8 µM | KM12 29.1 µM | NCI-H23 19.3 µM | K562 35.5 µM | HCT-116 34.5 µM | T47D 28.2 µM | ACHN 27 µM | NCI/ADR-RES 24.8 µM | U-251 28.2 µM | HOP-92 21.7 µM | IGROV-1 36.3 µM | SW-620 31 µM

COc1ccc(CNC(=O)[C@@H]2CCCN2C(=O)[C@@H]2CCCN2C(=O)[C@H](C(C)C)N(C)C(=O)[C@@H](NC(=O)[C@H](C(C)C)N(Cc2ccccc2)Cc2ccccc2)C(C)C)cc1OC (Bn2Val-V[NMeV]PP-{NH(3,4-diMeO-benzyl)})
inactive: A549 11.7 µM | UACC-257 11.3 µM | NCI-H460 13.5 µM | SF-295 15.1 µM | NCI-H226 17.3 µM | SK-MEL-5 7.5 µM | NCI-H522 8.85 µM | COLO 205 9.71 µM | KM12 21.4 µM | NCI-H23 18.9 µM | K562 7.55 µM | HCT-116 14.4 µM | T47D 12.6 µM | ACHN 13.7 µM | NCI/ADR-RES 18.3 µM | U-251 15.7 µM | HOP-92 14.9 µM | IGROV-1 3.92 µM | SW-620 12.8 µM
